Results on 24 compounds are retold here after ChEMBL document CHEMBL1201862, “PubChem BioAssay data set” (2004).

Activity calls are given as the source filed them.

Assay [1] can be described thus: fluconazole-exposed Candida albicans growth modulators – fluorescence, retest, confirmation (AID 2467). Format: functional, cell-based.
Assay [2] is described as follows: A cytotoxicity screen of small molecule inhibitors of the PhoP region in Salmonella typhi identified in the primary screen. [Related pubchem assays: 1850, 1864, 1985 ]. Format: functional.
The next assay is described as follows: cells. Format: functional.
The nature of assay [3]: NIH-3T3 fibroblast cytotoxicity, dose response, cytotoxicity control, cell-based, fluorescence, Alamar Blue, secondary assay (AID 2327).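 Note: NIH-3T3 mouse fibroblasts cultured with fluconazole at 8 µg/mL.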 Format: functional. On the technique in general: The colour change of resazurin is a common sign of viable cells or microbes.
The target of the next assay is Procathepsin L (Homo sapiens, UniProt P07711). Kind of assay: CTSL1 protease inhibition – biochemical, QFRET, 1536-well, counter-screen for M1/M17 aminopeptidase inhibitor project, dose response (AID 2214).
Procathepsin L, sequence (P07711 whole entry): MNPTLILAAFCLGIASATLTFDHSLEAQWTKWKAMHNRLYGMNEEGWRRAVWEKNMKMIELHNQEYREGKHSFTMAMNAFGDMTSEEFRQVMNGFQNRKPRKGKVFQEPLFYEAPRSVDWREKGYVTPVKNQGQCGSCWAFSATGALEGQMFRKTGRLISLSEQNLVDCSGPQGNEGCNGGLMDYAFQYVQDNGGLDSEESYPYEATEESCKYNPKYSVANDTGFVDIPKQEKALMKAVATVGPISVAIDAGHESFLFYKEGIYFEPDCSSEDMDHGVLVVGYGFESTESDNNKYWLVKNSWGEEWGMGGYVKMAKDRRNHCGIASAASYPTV
The target in another assay is T1, Leucine aminopeptidase (Plasmodium falciparum 3D7, UniProt Q8IL11).
T1 sequence (Q8IL11 whole entry): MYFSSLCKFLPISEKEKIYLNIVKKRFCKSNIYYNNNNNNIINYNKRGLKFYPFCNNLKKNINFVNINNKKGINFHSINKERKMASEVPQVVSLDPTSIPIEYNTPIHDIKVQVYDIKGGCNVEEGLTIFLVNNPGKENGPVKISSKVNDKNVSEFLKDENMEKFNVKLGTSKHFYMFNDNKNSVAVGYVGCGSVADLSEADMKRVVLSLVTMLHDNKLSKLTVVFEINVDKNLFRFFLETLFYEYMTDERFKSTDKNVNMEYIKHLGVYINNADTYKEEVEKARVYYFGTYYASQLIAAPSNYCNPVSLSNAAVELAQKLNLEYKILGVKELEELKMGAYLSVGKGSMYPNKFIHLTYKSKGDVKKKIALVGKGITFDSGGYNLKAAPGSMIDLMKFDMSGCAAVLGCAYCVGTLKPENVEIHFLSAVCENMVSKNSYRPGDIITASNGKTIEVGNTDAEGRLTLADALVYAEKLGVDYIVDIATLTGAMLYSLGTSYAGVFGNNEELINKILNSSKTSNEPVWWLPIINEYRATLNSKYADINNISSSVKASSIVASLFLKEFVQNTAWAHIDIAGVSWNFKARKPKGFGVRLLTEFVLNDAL
Nature of the assay: P. falciparum M17LAP inhibitors, primary screen, biochemical, fluorogenic H-Leu-NHMec substrate, 1536-well (AID 1619). Format: functional.

For the next assay, the target named is T2, Aspartyl aminopeptidase (Plasmodium falciparum 3D7, UniProt Q8I2J3).
T2 sequence (Q8I2J3 whole entry): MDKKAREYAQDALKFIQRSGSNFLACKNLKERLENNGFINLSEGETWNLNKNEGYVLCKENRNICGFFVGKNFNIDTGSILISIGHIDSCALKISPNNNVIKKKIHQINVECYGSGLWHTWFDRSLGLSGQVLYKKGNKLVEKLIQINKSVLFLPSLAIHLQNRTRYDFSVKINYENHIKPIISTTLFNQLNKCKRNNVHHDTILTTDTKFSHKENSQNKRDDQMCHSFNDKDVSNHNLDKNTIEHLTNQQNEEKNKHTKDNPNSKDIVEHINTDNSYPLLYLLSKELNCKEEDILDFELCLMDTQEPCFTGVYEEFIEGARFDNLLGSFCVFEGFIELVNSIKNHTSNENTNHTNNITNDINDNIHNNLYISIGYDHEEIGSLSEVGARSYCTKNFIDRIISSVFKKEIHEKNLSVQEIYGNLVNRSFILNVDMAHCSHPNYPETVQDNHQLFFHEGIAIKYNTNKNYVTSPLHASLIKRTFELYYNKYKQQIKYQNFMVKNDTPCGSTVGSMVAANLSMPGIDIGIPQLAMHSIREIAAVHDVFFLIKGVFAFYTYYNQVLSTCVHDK
Kind of assay: Counterscreen for inhibitors of M1 and M17 aminopeptidases: QFRET-based biochemical high throughput dose response assay for inhibitors of the Plasmodium falciparum M18 Aspartyl Aminopeptidase (PFM18AAP). [Related PubChem assays: 1619 (Screening assay (M17LAP inhibitors).), 1445 (Screening assay (M1AAP inhibitors).)]. For orientation: Counterscreens check selectivity or assay interference.

The target of another assay is Cytochrome P450 3A4 (Homo sapiens, UniProt P08684). The following applies: Potency.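 Note: confirmatory qHTS run detecting inhibitors and substrates of CYP3A4.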
Cytochrome P450 3A4, sequence (P08684 whole entry): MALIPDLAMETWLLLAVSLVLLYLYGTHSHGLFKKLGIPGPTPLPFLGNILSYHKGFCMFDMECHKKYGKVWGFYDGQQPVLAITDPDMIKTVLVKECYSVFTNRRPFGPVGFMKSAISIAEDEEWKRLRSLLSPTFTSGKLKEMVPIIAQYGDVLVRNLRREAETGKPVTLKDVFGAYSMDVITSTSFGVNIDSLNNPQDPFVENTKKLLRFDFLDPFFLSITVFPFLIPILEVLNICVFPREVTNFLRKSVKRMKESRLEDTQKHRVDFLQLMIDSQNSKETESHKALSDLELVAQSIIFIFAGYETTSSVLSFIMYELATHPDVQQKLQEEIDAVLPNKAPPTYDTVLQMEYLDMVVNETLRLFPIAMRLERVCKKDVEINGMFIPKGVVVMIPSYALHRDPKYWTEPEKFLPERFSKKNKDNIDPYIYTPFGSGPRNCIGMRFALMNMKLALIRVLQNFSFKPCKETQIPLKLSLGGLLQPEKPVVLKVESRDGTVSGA
In assay [4] the target is Voltage-dependent T-type calcium channel subunit alpha-1H (Homo sapiens, UniProt O95180). Format: functional.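 Note: channel activity triggered by adding a high calcium stimulation buffer.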
Voltage-dependent T-type calcium channel subunit alpha-1H, sequence (O95180 whole entry): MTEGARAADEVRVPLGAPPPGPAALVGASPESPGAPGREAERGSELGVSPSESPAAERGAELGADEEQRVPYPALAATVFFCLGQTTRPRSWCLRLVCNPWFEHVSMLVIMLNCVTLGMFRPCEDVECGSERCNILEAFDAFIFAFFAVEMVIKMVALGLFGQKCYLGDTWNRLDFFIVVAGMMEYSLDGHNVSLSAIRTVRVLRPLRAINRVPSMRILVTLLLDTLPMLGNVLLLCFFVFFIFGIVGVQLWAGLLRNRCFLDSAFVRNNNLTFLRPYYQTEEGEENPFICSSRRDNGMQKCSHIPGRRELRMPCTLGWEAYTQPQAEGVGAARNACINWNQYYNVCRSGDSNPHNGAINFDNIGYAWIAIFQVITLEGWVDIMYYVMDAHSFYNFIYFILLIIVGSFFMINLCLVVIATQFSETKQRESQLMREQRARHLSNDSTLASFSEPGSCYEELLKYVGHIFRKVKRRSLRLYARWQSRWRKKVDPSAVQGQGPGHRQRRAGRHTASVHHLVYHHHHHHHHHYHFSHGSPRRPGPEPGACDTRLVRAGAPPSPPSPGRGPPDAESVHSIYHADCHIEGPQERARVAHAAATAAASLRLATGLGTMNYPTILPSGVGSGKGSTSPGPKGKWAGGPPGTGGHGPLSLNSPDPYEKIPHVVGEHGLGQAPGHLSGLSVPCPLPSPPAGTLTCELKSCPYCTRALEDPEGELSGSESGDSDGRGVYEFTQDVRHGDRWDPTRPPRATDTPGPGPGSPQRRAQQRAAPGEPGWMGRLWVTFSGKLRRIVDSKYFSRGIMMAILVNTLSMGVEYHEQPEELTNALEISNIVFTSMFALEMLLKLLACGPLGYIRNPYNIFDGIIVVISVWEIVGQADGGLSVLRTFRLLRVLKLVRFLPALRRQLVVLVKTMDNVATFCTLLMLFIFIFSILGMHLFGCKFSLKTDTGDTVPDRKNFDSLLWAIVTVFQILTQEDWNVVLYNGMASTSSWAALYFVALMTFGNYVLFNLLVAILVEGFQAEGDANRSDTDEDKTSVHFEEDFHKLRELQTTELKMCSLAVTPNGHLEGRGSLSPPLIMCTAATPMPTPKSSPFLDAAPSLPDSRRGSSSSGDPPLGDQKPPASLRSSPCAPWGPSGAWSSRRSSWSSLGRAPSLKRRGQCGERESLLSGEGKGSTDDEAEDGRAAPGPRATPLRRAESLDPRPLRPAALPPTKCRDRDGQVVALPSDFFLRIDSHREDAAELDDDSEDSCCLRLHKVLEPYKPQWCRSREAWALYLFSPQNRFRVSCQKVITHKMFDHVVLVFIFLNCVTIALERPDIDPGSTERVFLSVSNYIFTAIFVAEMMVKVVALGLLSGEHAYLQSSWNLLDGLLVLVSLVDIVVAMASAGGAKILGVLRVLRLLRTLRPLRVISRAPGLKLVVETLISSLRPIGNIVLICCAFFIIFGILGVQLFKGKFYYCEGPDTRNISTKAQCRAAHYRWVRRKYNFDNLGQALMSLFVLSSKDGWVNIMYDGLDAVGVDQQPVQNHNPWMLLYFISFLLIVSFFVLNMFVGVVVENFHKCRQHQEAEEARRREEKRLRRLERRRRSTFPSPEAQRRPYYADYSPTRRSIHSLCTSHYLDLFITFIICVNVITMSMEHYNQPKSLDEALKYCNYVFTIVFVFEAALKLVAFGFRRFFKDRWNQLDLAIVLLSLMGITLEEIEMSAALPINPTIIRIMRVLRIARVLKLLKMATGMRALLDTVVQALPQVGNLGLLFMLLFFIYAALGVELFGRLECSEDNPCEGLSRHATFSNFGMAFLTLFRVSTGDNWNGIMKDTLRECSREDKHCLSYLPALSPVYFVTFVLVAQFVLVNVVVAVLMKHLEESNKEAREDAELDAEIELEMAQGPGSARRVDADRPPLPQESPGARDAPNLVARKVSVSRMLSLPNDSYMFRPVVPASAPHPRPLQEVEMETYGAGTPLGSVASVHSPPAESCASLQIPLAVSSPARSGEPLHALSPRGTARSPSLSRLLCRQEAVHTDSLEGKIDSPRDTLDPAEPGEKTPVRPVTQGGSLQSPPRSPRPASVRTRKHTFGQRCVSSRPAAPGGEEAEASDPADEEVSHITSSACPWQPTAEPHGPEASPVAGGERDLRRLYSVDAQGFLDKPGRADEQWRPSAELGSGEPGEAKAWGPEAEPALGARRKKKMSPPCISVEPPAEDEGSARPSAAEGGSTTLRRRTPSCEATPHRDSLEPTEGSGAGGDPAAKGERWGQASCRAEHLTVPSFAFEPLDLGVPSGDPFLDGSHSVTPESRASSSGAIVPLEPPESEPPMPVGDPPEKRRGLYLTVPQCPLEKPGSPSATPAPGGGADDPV
Assay [5] has as its target Polyadenylate-binding protein 1 (Homo sapiens, UniProt P11940). Nature of the assay: blockers of PABP interaction with poly(A) – biochemical, fluorescence polarization, […] (AID 2014). In general terms: Polarisation of emitted light reports the rotation of a fluorescent probe.
Assay [6] deals with DNA dC->dU-editing enzyme APOBEC-3G (Homo sapiens, UniProt Q9HC16). Type of assay: functional.
DNA dC->dU-editing enzyme APOBEC-3G, sequence (Q9HC16 whole entry): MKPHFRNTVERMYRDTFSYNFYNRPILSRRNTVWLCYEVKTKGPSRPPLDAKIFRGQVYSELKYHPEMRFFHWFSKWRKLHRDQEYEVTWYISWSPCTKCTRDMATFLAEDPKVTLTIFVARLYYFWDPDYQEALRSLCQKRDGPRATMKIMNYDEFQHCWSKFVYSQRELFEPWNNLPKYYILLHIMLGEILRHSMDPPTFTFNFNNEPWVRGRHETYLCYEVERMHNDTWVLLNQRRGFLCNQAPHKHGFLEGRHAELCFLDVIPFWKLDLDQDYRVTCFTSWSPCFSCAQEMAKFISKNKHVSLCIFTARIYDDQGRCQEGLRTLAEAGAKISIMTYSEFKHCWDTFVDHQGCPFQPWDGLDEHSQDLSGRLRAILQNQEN
Assay [7] addresses Eukaryotic translation initiation factor 4H (Homo sapiens, UniProt Q15056). Kind of assay: eIF4H binding inhibition – biochemical, uHTS, fluorescence polarization, translation initiation inhibitor project, primary screen (AID 2012).
Assay [8] addresses DNA dC->dU-editing enzyme APOBEC-3A (Homo sapiens, UniProt P31941). Nature of the assay: Dose Response confirmation of small molecule APOBEC3A DNA Deaminase Inhibitors via a fluorescence-based single-stranded DNA deaminase assay. [Related pubchem assays (depositor defined):AID493011, AID493024]. Type of assay: functional.
Assay [9] concerns the target Glyceraldehyde-3-phosphate dehydrogenase (Homo sapiens, UniProt P04406).
In assay [10] the target is T3, Alkaline phosphatase, tissue-nonspecific isozyme (Homo sapiens, UniProt P05186).
T3 sequence (P05186 whole entry): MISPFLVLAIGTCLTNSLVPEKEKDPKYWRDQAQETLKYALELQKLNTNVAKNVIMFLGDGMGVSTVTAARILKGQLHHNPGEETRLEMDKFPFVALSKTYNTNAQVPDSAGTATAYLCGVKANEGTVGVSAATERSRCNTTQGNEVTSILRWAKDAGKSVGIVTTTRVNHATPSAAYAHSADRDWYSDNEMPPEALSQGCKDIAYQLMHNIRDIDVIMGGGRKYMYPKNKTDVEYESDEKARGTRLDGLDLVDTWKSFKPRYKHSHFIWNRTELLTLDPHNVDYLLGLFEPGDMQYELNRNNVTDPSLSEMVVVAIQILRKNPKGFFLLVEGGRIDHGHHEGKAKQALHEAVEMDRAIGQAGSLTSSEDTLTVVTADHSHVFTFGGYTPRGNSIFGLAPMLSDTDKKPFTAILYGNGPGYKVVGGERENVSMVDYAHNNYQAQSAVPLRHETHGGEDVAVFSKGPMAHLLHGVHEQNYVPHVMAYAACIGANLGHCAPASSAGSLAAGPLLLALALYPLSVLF
Kind of assay: potency against alkaline phosphatase TNAP – biochemical, luminescent, dose response, SAR follow-up (AID 1056).

Assay [11] concerns the target Alkaline phosphatase, placental type (Homo sapiens, UniProt P05187). Kind of assay: human placental alkaline phosphatase inhibition – biochemical, luminescence, confirmation (AID 1512). Type of assay: functional.
A short description of assay [12]: Luminescence Cell-Based Dose Retest to Confirm Inhibitors of Cancer Stem Cells. [Related pubchem assays (depositor defined):AID2717, AID2721]. The following applies: Homo sapiens. Type of assay: functional.
Assay [13] is described as follows: viability loss of HPDE-C7K cells – cell-based, fluorescence, HTS, primary screen (AID 431). Format: functional. The following applies: Homo sapiens.
Assay [14] is described as follows: HPDE-C7 pancreatic duct cell viability loss – fluorescence, HTS (AID 430). The following applies: Homo sapiens. Format: functional, cell-based.
Assay [15] can be described thus: THP-1 cell cytotoxicity, dose response, cytotoxicity control for non-replicating M. tuberculosis project (AID 489025). Format: functional.
Assay [16] is described as follows: Vero E6 cell cytotoxicity, dose response, cytotoxicity control for non-replicating M. tuberculosis project, secondary assay (AID 492998). As to conditions: Vero C1008. Type of assay: functional, VeroE6.
Assay [17] in a line: HepG2 cell cytotoxicity, dose response, cytotoxicity control for non-replicating M. tuberculosis project (AID 489018). Format: functional. As to conditions: Mycobacterium tuberculosis.
The test system of assay [18] is Streptococcus sp. 'group A'. Kind of assay: Streptococcus pyogenes SK(-)GAS viability under kanamycin – luminescence, BacTiterGlo, confirmation, counter-screen for streptokinase expression inhibitor project, dose response (AID 1900). Type of assay: functional, organism-based.
The next assay concerns Streptococcus. Kind of assay: GAS UMAA2166 growth inhibition – luminescence, BacTiterGlo, counter-screen for streptokinase expression inhibitor project, dose response (AID 1915).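 Note: potency for reduction of bacterial viability or growth.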 Format: functional, organism-based.
A further assay concerns the target Cytochrome P450 2D6 (Homo sapiens, UniProt P10635).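 Note: CYP2D6 member of a cytochrome P450 panel assay.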
For another assay, the target named is Cytochrome P450 2C9 (Homo sapiens, UniProt P11712).
The target of another assay is Cytochrome P450 2C19 (Homo sapiens, UniProt P33261). Kind of assay: Cytochrome panel assay with activity outcomes. Panel member name: p450-cyp2c19 Compounds with AC50 equal or less than 10 uM are considered active. Format: functional. The following applies: read-out: AC50.

Polyadenylate-binding protein 1, sequence (P11940 whole entry): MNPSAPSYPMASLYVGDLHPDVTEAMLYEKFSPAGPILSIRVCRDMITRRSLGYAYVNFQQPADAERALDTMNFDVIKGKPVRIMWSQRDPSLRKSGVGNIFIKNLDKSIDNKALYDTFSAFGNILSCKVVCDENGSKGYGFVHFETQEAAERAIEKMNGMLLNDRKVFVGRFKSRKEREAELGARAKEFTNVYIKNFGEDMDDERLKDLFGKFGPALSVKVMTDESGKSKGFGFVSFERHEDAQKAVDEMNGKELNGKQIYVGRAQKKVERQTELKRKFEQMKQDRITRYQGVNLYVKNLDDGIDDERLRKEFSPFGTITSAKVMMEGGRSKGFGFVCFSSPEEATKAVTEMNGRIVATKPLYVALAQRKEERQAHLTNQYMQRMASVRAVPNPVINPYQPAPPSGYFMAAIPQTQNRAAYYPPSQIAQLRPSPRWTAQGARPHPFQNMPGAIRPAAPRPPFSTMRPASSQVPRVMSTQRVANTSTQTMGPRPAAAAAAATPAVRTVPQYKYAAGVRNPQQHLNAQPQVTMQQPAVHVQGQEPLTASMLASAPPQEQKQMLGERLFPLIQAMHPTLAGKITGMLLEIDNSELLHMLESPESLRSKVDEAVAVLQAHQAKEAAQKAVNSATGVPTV
Glyceraldehyde-3-phosphate dehydrogenase, sequence (P04406 whole entry): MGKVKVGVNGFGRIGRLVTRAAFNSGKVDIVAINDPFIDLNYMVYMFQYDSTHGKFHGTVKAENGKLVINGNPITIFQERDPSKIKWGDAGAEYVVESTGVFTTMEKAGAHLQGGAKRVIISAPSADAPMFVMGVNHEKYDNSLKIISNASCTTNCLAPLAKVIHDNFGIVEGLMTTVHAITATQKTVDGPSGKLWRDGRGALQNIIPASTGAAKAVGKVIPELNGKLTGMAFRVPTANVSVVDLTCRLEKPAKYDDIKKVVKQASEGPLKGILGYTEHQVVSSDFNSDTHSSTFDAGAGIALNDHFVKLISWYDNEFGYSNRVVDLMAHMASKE
DNA dC->dU-editing enzyme APOBEC-3A, sequence (P31941 whole entry): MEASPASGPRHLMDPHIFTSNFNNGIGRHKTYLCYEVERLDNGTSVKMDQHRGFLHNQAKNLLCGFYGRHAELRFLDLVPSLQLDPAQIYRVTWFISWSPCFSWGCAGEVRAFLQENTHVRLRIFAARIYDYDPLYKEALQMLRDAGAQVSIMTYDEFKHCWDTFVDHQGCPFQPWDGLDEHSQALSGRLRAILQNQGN

On to `CCCCCCCC(=O)N/N=C/c1ccc([N+](=O)[O-])o1`, for which the EC50 – broadly, the concentration that produces a half-maximal response – was 2.88 µM (active) in assay [1], > 50 µM (active) in [2] and > 160 µM (inactive) in assay [3]. Moreover, the IC50 (commonly the concentration needed to halve the response being measured) in “cells” was 2.63 µM (active).
For the compound `O=C(O)CCCCCNC(=O)Nc1ccc2c(c1)OCCO2`, the IC50 is > 59.6 µM (not active) against Procathepsin L, 5.51 µM (active) at Leucine aminopeptidase and > 73.5 µM (not active) on Aspartyl aminopeptidase.
In the same order, the values of `O=C(O)C1CC=CCC1C(=O)Nc1ccc(Oc2ccc(Cl)cc2)cc1` (stereo not drawn) are > 59.6 µM (not active), 1.02 µM (active) and > 73.5 µM (not active).
Take `O=C(CN1C2=NCCN2c2ccccc21)c1ccc2c(c1)OCO2`: the EC50 in assay [2] is > 50 µM (active).
Take `O=c1c(-c2cc(O)c(O)c(O)c2)coc2cc(O)c(O)c(O)c12` [IRIGENOL]: at Cytochrome P450 3A4, the AC50 – broadly, the midpoint of the concentration-response curve, whichever way the signal moves – is 25.1 µM (inconclusive).
For `CC(CCc1ccccc1)NC(=O)CN1CCN(Cc2ccc(Cl)cc2)C1=O` (stereo not drawn), in assay [4], the EC50 was 4.5 µM (active).
Take `Cc1ccc(CNC(=O)C[S+]([O-])Cc2nc(-c3ccccc3C)oc2C)cc1` (stereo not drawn): the EC50 in assay [4] is 6 µM (active).
Regarding `COc1ccc(/C=C2\C(=O)NCC(=O)N2C)cc1`, the IC50 in [5] is 6.16 µM (active); in [6], 6.99 µM (active); in assay [7], > 100 µM (inactive); in assay [8], 2.81 µM (active).
Turning to `O=C(NCc1ccc2c(c1)OCO2)c1ccc(CN2CCc3ccccc3C2)cc1`, the EC50 in assay [4] was 7.5 µM (active).
As to `O=S(=O)(Nc1ccncn1)c1cc(Cl)ccc1F`, the IC50 is > 100 µM (not active) in [9] and > 100 µM (inactive) in assay [10].
With `CSc1n[nH]c(NC(C)=O)n1`, the IC50 is > 10 µM (inconclusive) in assay [9] and > 10 µM (inactive) in assay [10].
Turning to `COc1ccccc1-c1nnc(SCc2ccc(C(=O)O)cc2)[nH]1`, the results for the IC50 in assay [11], in [9] and in assay [10] were > 100 µM (inactive), > 100 µM (not active) and 16.3 µM (active), respectively.
For the compound `COc1cc(CN2CCN(c3cccc(Cl)c3)CC2)cc(OC)c1OC`, the AC50 in [12] is 1.45 µM (active). For the same compound, the EC50 in assay [13] is 5.95 µM (active); in assay [14], 6.14 µM (active).
With `CN(C)c1c2ccccc2nc2c(F)c(F)c(F)c(F)c12`, the results for the CC50 in [15], in assay [16] and in [17] were 22.9 µM (active), > 20 µM (active) and > 20 µM (active), respectively. The half-maximal inhibitory concentration (IC50) in “cells” was 17.7 µM (active).
As for `CC(=O)OCC1OC(C#Cc2ccc(Br)cc2)C=CC1OC(C)=O` (stereo not drawn), on Cytochrome P450 3A4, the AC50 is 3.16 µM (inconclusive).
On to `N#Cc1c(NC(=O)CSc2n[nH]c(Cc3ccccc3)n2)oc(-c2ccccc2)c1-c1ccccc1`, for which the EC50 in assay [18] was 4.97 µM (active); in [13], 5.24 µM (active); with Streptococcus, 36.5 µM (active); in [14] it was 4.13 µM (active).
Regarding `COC(=O)c1c(NC(=O)C2CCCCC2C(=O)O)sc2c1CCCCC2` (stereo not drawn), the IC50 is > 59.6 µM (not active) at Procathepsin L, 1.49 µM (active) on Leucine aminopeptidase and > 73.5 µM (not active) at Aspartyl aminopeptidase.
Take `Cc1ccc(NC(=O)C[S+]([O-])Cc2nc(-c3ccc(C)cc3)oc2C)cc1` (stereo not drawn): in [4], the EC50 is 2.45 µM (active).
On to `COc1ccccc1NC(=O)c1cc[n+](C)cc1`, for which the IC50 was 5.63 µM (active) in [5], 2.3 µM (active) in assay [6], 90.8 µM (active) in [7] and 2.48 µM (active) in assay [8].
Take `CCOC(=O)Cc1csc(NC(=O)c2ccc(S(=O)(=O)N3CCCC3)cc2)n1`: the EC50 in assay [2] is > 50 µM (active).
Take `COc1cc(/C=C/c2cccc[n+]2C)ccc1OCC(=O)Nc1ccccc1C`: the IC50 in [5] is 3.83 µM (active); in assay [6], 1.29 µM (active); in assay [7] it was > 100 µM (inactive); in [8], 1.56 µM (active).
With `CCCC(=O)N1CCN(c2ccc(NC(=S)NC(=O)c3cccc(C)c3)cc2)CC1`, in assay [2], the 50% effective concentration (EC50) is > 50 µM (active).
As to `Cc1cc(C)c(N)cc1C`, the AC50 at Cytochrome P450 3A4 is 39.8 µM (inconclusive).
`CC1=C(C(=O)OCc2ccccc2)C(c2ccccc2)NC(=O)N1CCCCCC(=O)O` (stereo not drawn): the AC50 at Cytochrome P450 2D6 is 39.8 µM (inconclusive); at Cytochrome P450 2C9, 25.1 µM (inconclusive); at Cytochrome P450 2C19 it was 39.8 µM (inconclusive). Besides, the results for the concentration for half-maximal inhibition (IC50) in assay [5] and in [7] were 29.9 µM (active) and 78.5 µM (active), respectively.
